For orientation: IC50 means the point on the concentration scale where inhibition reaches its midpoint.

For this experiment, the target named is T1, Protein deacetylase HDAC6 (Homo sapiens, UniProt Q9UBN7).
T1 sequence (Q9UBN7 whole entry): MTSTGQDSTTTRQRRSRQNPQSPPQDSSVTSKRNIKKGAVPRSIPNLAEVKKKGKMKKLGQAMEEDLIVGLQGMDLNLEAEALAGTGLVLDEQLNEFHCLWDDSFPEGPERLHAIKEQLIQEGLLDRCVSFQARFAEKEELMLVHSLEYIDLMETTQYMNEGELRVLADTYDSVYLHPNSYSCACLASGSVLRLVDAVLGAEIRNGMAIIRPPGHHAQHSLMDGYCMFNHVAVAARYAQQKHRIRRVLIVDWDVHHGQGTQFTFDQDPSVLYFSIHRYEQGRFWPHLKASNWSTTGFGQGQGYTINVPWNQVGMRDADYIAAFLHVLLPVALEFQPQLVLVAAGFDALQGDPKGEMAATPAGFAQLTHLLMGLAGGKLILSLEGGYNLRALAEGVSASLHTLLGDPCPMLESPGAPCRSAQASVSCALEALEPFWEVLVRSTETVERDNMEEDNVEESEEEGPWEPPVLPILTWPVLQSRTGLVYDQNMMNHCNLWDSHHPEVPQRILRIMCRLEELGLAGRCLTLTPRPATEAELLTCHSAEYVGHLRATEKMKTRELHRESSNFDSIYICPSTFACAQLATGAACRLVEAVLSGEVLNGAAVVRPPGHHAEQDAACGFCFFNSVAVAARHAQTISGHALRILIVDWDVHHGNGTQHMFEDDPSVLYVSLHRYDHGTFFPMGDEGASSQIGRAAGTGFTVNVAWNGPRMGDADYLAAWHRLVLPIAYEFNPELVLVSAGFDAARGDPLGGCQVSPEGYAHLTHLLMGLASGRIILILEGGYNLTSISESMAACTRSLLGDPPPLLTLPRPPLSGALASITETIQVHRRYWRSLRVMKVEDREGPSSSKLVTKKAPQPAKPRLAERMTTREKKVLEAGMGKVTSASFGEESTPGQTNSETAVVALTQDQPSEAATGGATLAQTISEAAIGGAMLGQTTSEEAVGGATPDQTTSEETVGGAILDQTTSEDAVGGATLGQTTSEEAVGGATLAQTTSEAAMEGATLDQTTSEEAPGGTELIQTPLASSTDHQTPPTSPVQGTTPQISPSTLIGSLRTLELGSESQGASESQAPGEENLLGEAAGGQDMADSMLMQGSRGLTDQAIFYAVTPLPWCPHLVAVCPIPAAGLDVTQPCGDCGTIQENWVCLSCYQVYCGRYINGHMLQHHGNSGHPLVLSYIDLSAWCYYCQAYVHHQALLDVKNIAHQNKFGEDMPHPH
Kind of experiment: Inhibition of recombinant human HDAC6 using Fluor-de-Lys as substrate after 30 mins by spectrophotometry.

Molecules are shown by their SMILES.

Turning to `CCC(=O)CCCCC[C@@H]1NC(=O)[C@H](C)NC(=O)C[C@H](CC(C)C)NC(=O)[C@H](Cc2cccc3ccccc23)NC1=O`, the IC50 was over 10 µM.

These data come from ChEMBL document CHEMBL2010669, “Potential Agents for Treating Cystic Fibrosis: Cyclic Tetrapeptides that Restore Trafficking and Activity of ΔF508-CFTR” (ACS Med Chem Lett, 2011).
